Here are results for eleven compounds from patent publication US10689377B2 (Mirati Therapeutics, Inc., priority 2017, dated 2020).

The target in the test is KRas G12C (Homo sapiens, UniProt P01116, G12C). Description: Cellular inhibition of KRas G12C measured by Phospho-ERK in NCI-H358 cells. The test is classed as cell-based. As to conditions: pERK(Thr202/Tyr204) normalized with GAPDH, NCI-H358 cells, 3 hours; read-out: IC50. The method, boiled down: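 Readout is pERK(Thr202/Tyr204) immunofluorescence normalized to GAPDH, expressed as percent of DMSO control and fitted with a 4-parameter curve for IC50. Attached NCI-H358 cells received compound for 3 hours in 0.5% DMSO, followed by fixation and methanol permeabilization.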
KRas G12C, sequence (P01116 1-188 isoform P01116-2 G12C): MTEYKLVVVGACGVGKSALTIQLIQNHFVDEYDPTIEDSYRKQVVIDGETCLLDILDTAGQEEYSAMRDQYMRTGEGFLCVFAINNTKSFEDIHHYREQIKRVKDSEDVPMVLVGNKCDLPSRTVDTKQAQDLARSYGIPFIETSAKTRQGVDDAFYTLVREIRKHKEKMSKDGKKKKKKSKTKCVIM
Turning to `C=CC(=O)N1CCN(c2nc(OCCCN3CCN(C(C)=O)CC3)nc3c2CCN(c2cc(O)cc4ccccc24)C3)CC1` [Example 135, 1-[4-[2-[3-(4-acetylpiperazin-1-yl)propoxy]-7-(3-hydroxy-1-naphthyl)-6,8-dihydro-5H-pyrido[3,4-d]pyrimidin-4-yl]piperazin-1-yl]prop-2-en-1-one], the IC50 (commonly the midpoint of a concentration-inhibition curve) is 0.0001 to 1 µM.

As to `C=CC(=O)N1CCN(c2nc(OC[C@@H]3C[C@@H](F)CN3C)nc3c2CCN(c2cccc(C)c2C)C3)C[C@@H]1CC#N` [Example 437, 2-((S)-1-acryloyl-4-(7-(2,3-dimethylphenyl)-2-(((2S,4R)-4-fluoro-1-methylpyrrolidin-2-yl)methoxy)-5,6,7,8-tetrahydropyrido[3,4-d]pyrimidin-4-yl)piperazin-2-yl)acetonitrile], the half-maximal inhibitory concentration (IC50) lay within 0.0001 to 1 µM.

Regarding `C=CC(=O)N1CCN(c2nc(OCC3CN(C)CCN3C)nc3c2CCN(c2cc(O)cc4ccccc24)C3)CC1` (centres unmarked) [Example 219, 1-(4-(2-((1,4-dimethylpiperazin-2-yl)methoxy)-7-(3-hydroxynaphthalen-1-yl)-5,6,7,8-tetrahydropyrido[3,4-d]pyrimidin-4-yl)piperazin-1-yl)prop-2-en-1-one], the IC50 was greater than 1 µM.

Take `C=CC(=O)N1CCN(c2nc(OC[C@@H]3CCN(C)C3)nc3c2CCN(c2ccccc2C(F)(F)F)C3)CC1CC#N` (stereo partly drawn) [Example 281, 2-(1-acryloyl-4-(2-(((R)-1-methylpyrrolidin-3-yl)methoxy)-7-(2-(trifluoromethyl)phenyl)-5,6,7,8-tetrahydropyrido[3,4-d]pyrimidin-4-yl)piperazin-2-yl)acetonitrile]: the IC50 was 0.0001 to 1 µM.

As for `C=CC(=O)N1CCN(c2nc(OC[C@@H]3CCCN3C)nc3c2CCN(c2cccc4ccccc24)C3)CC1` [Example 200, (S)-1-(4-(2-((1-methylpyrrolidin-2-yl)methoxy)-7-(naphthalen-1-yl)-5,6,7,8-tetrahydropyrido[3,4-d]pyrimidin-4-yl)piperazin-1-yl)prop-2-en-1-one], the IC50 is greater than 1 µM.

In the case of `C=CC(=O)N1CCN(c2nc(OC[C@H]3CCCC(=O)N3)nc3c2CCN(c2cc(O)cc4ccccc24)C3)CC1` (single isomer, unassigned) [Example 62], the IC50 is greater than 1 µM.

On to `C=CC(=O)N1CCN(c2nc(OC[C@@H]3CCCN3C)nc3c2CCN(c2cccc(F)c2F)C3)C[C@@H]1CC#N` [Example 407, 2-((S)-1-acryloyl-4-(7-(2,3-difluorophenyl)-2-(((S)-1-methylpyrrolidin-2-yl)methoxy)-5,6,7,8-tetrahydropyrido[3,4-d]pyrimidin-4-yl)piperazin-2-yl)acetonitrile], for which the IC50 is greater than 1 µM.

As to `C=CC(=O)N1CCN(c2nc(OC[C@@H]3CCCN3C)nc3c2CCN(c2c(Cl)ccc4[nH]ncc24)C3)CC1` [Example 250, 1-[4-[7-(5-chloro-1H-indazol-4-yl)-2-[[(2S)-1-methylpyrrolidin-2-yl]methoxy]-6,8-dihydro-5H-pyrido[3,4-d]pyrimidin-4-yl]piperazin-1-yl]prop-2-en-1-one], the concentration for half-maximal inhibition (IC50) was greater than 1 µM.

`C=CC(=O)N1CCN(c2nc(OC[C@@H]3CCCN3C)nc3c2CCN(c2cncc(Cl)c2C(F)(F)F)C3)C[C@@H]1CC#N` [Example 385, 2-((S)-1-acryloyl-4-(7-(5-chloro-4-(trifluoromethyl)pyridin-3-yl)-2-(((S)-1-methylpyrrolidin-2-yl)methoxy)-5,6,7,8-tetrahydropyrido[3,4-d]pyrimidin-4-yl)piperazin-2-yl)acetonitrile]: the IC50 is 0.0001 to 1 µM.

Take `C=CC(=O)N1CCN(c2ncnc3c2CCN(C(CO)c2ccccc2)C3)CC1` (centres unmarked) [Example 71, 1-(4-(7-(2-hydroxy-1-phenylethyl)-5,6,7,8-tetrahydropyrido[3,4-d]pyrimidin-4-yl)piperazin-1-yl)prop-2-en-1-one]: the concentration for half-maximal inhibition (IC50) was greater than 1 µM.

For `C=CC(=O)N1CC2(C1)CN(c1ncnc3c1CC(=O)N(c1cc(O)cc4ccccc14)C3)C2` [Example 114, 4-(6-acryloyl-2,6-diazaspiro[3.3]heptan-2-yl)-7-(3-hydroxynaphthalen-1-yl)-7,8-dihydropyrido[3,4-d]pyrimidin-6(5H)-one], the concentration for half-maximal inhibition (IC50) is greater than 1 µM.
